Structures can show the parent of a compound that is named as a salt.
Experiments:
5HT2C receptor = target: T1, 5HT2C receptor (Homo sapiens, UniProt P28335); assay: NIMH-PDSP radioligand binding, 5HT2C
T1 sequence (P28335 33-458): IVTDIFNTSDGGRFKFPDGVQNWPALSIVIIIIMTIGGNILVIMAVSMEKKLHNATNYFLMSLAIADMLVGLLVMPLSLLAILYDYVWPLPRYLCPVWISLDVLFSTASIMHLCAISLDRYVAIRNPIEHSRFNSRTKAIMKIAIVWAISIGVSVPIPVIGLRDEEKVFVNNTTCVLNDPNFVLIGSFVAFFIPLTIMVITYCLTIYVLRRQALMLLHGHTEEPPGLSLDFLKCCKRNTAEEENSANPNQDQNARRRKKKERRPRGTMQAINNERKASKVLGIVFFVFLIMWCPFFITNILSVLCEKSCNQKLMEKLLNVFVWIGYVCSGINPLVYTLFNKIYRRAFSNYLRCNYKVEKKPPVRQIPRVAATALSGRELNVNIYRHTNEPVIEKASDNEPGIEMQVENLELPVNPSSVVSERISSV

D4 receptor = target: T2, D4 receptor (Homo sapiens, UniProt P21917); assay: NIMH-PDSP radioligand binding, D4; conditions: compared to the methylene analog (so in the source)
T2 sequence (P21917 1-419): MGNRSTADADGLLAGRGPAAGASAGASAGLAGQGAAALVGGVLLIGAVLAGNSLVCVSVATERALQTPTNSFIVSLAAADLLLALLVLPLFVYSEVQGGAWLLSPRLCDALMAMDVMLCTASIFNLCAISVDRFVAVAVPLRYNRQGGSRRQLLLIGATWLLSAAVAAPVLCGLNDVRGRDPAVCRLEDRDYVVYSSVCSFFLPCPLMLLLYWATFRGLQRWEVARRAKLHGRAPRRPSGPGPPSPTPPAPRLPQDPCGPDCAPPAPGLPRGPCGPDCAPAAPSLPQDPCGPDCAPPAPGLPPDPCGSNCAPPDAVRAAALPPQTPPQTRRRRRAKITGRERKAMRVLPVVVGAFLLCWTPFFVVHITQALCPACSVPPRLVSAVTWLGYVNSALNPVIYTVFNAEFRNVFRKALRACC

5HT1A receptor = target: T3, 5HT1A receptor (Homo sapiens, UniProt P08908); assay: NIMH-PDSP radioligand binding, 5HT1A; conditions: compound 15 as the template
T3 sequence (P08908 1-422): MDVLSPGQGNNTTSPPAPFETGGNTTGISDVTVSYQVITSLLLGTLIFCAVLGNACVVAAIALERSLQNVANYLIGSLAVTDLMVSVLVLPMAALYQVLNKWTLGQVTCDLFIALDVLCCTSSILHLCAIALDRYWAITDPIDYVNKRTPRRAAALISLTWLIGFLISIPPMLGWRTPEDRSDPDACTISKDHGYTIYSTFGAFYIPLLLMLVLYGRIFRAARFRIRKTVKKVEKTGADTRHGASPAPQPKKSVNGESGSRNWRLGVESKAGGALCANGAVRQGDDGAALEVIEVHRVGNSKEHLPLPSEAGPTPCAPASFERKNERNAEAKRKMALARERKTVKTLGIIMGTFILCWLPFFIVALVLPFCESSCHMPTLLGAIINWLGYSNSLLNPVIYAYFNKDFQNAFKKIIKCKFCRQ

D2 receptor = D2 receptor (Homo sapiens, UniProt P14416); assay: NIMH-PDSP radioligand binding, D2; conditions: compound 15 as the template
Sequence of D2 receptor (P14416 whole entry): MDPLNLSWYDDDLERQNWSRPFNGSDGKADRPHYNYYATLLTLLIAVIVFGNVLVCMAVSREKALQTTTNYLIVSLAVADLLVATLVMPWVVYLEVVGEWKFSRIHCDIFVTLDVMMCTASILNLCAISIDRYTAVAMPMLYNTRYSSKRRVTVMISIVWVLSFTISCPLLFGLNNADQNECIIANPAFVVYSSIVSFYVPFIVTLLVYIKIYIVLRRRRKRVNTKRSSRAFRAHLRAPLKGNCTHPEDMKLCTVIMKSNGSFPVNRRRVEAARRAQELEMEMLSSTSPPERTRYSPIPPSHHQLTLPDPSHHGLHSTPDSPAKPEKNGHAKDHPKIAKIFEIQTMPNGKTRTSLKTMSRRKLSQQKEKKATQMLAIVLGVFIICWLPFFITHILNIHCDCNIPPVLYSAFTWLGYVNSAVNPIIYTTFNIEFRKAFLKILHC

Row | SMILES | Ki (5HT2C receptor) [µM] | also measured
1 | OC1(c2ccc(Cl)cc2)CCN(CCCSc2ccc(F)cc2)CC1 [Compound 6, 4-(4-chlorophenyl)-1-(3-((4-fluorophenyl)thio)propyl)piperidin-4-ol] |  | decrease in binding at the D4 receptor (D4 receptor): over 24 fold
2 | [O-][S+](CCCN1CCC(c2ccc(Cl)cc2)CC1)c1ccc(F)cc1 (centres unmarked) [Compound 10, 4-(4-Chlorophenyl)-1-(3-((4-fluorophenyl)sulfinyl)propyl)piperidine HCl] | > 10 | 
3 | Clc1ccc(N2CCN(CCCOc3ccccc3)CC2)cc1 [Compound 17, 1-(4-Chlorophenyl)-4-(3-phenoxypropyl)piperazine HCl] |  | binding increased by a factor, 5HT1A receptor (5HT1A receptor): 3
4 | Fc1ccc(OCCCN2CCN(c3ccccc3)CC2)cc1 [Compound 16, 1-(3-(4-Fluorophenoxy)propyl)-4-phenylpiperazine] |  | increase in binding at the D2 receptor (D2 receptor): over 10 fold
5 | OC1(c2ccc(Cl)cc2)CCN(CCCOc2ccc(F)cc2)CC1 [Compound 7, 4-(4-Chloro-phenyl)-1-[3-(4-fluoro-phenoxy)-propyl]-piperidin-4-ol] |  | increase in binding at the D4 receptor (D4 receptor): over 4 fold

Further lines, with some results ahead:

Row | Ki (5HT2C receptor) [µM] | SMILES | also measured
6 | > 10 | Fc1ccc(SCCCN2CCC(c3ccc(Cl)cc3)CC2)cc1 [Compound 8, 4-(4-Chlorophenyl)-1-(3-((4-fluorophenyl)thio)propyl)piperidine hydrochloride] | 
7 | > 10 | Fc1ccc(OCCCN2CCN(c3ncccn3)CC2)cc1 [Compound 22, 2-(4-(3-(4-Fluorophenoxy)propyl)piperazin-1-yl)pyrimidine] | 
8 | > 10 | Fc1ccc(OCCCN2CCC(c3ccc(Cl)cc3)CC2)cc1 [Compound 9, 4-(4-Chlorophenyl)-1-(3-(4-fluorophenoxy)propyl)piperidine] | 

From publication PMC3267002 (Bioorganic & medicinal chemistry, 2011)
